Tested on: 292921-168-R tumor spheroid viability
Assay: Anticancer human tumor 292921-168-R patient-derived pancreatic carcinoma cell line growth inhibition
Conditions: spheroids with HUVEC and MSC; for IC50: curve of first compound; for viability, T/C: stronger effect = lower value
Procedure, shortened: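 Complex tumor spheroids combined malignant cells with endothelial cells and mesenchymal stem cells. DNA-damaging drugs and DNA repair inhibitors were tested alone and in combination, at half-log dilutions down from clinical Cmax (top 10 microM if Cmax unknown), 0.25% DMSO final.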

[1] = second compound 30 pM, first compound 0.0316 µM
[2] = second compound 30 pM, first compound 0.1 µM
[3] = second compound 30 pM, first compound 0.316 µM
[4] = second compound 30 pM, first compound 1 µM
[5] = second compound 30 pM, first compound 3.16 µM
[6] = second compound 30 pM, first compound 10 µM
[7] = second compound 94.9 pM, first compound 0.0316 µM
[8] = second compound 94.9 pM, first compound 0.1 µM
[9] = second compound 94.9 pM, first compound 0.316 µM
[10] = second compound 94.9 pM, first compound 1 µM
[11] = second compound 94.9 pM, first compound 3.16 µM
[12] = second compound 94.9 pM, first compound 10 µM
[13] = second compound 0.0003 µM, first compound 0.0316 µM
[14] = second compound 0.0003 µM, first compound 0.1 µM
[15] = second compound 0.0003 µM, first compound 0.316 µM
[16] = second compound 0.0003 µM, first compound 1 µM
[17] = second compound 0.0003 µM, first compound 3.16 µM
[18] = second compound 0.0003 µM, first compound 10 µM
[19] = second compound 0.000949 µM, first compound 0.0316 µM
[20] = second compound 0.000949 µM, first compound 0.1 µM
[21] = second compound 0.000949 µM, first compound 0.316 µM
[22] = second compound 0.000949 µM, first compound 1 µM
[23] = second compound 0.000949 µM, first compound 3.16 µM
[24] = second compound 0.000949 µM, first compound 10 µM
[25] = second compound 0.003 µM, first compound 0.0316 µM
[26] = second compound 0.003 µM, first compound 0.1 µM
[27] = second compound 0.003 µM, first compound 0.316 µM
[28] = second compound 0.003 µM, first compound 1 µM
[29] = second compound 0.003 µM, first compound 3.16 µM
[30] = second compound 0.003 µM, first compound 10 µM
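Also: spheroids exposed to compounds for 7 days.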

SMILES | IC50 (second compound 30 pM) | IC50 (second compound 94.9 pM) | IC50 (second compound 0.0003 µM) | IC50 (second compound 0.000949 µM) | IC50 (second compound 0.003 µM) | viability, T/C [1] | viability, T/C [2] | viability, T/C [3] | viability, T/C [4] | viability, T/C [5] | viability, T/C [6] | viability, T/C [7] | viability, T/C [8] | viability, T/C [9] | viability, T/C [10] | viability, T/C [11] | viability, T/C [12] | viability, T/C [13] | viability, T/C [14] | viability, T/C [15] | also measured
CC(C)n1c(=O)n(C)c2cnc3cc(F)c(-c4ccc(OCCCN5CCCCC5)nc4)cc3c21 + COc1cc2c(cc1O)CCNC21CSC2c3c(OC(C)=O)c(C)c4c(c3C(COC1=O)N1C(O)C3Cc5cc(C)c(OC)c(O)c5C(C21)N3C)OCO4 | 3530 nM | < 31.6 nM | < 31.6 nM | < 31.6 nM | < 31.6 nM | 52.2% | 64.9% | 60% | 64% | 49.6% | 28.1% | 39.2% | 36% | 39% | 35.8% | 38.6% | 23.9% | 20.9% | 21.3% | 20.8% | viability, T/C [16]: 24.8%; viability, T/C [17]: 29.4%; viability, T/C [18]: 19.5%; viability, T/C [19]: 2.03%; viability, T/C [20]: 2.57%; viability, T/C [21]: 2.94%; viability, T/C [22]: 4.97%; viability, T/C [23]: 7.02%; viability, T/C [24]: 5.36%; viability, T/C [25]: 0.16%; viability, T/C [26]: 0.18%; viability, T/C [27]: 0.2%; viability, T/C [28]: 0.15%; viability, T/C [29]: 0.13%; viability, T/C [30]: 0.22%
CC1COCCN1c1cc(-c2ccnn2C)c2ccnc(-c3ccn[nH]3)c2n1 (stereo not given) + COc1cc2c(cc1O)CCNC21CSC2c3c(OC(C)=O)c(C)c4c(c3C(COC1=O)N1C(O)C3Cc5cc(C)c(OC)c(O)c5C(C21)N3C)OCO4 | < 31.6 nM | < 31.6 nM | < 31.6 nM | < 31.6 nM | < 31.6 nM | 17.2% | 10.9% | 10.4% | 13% | 14.3% | 16.4% | 10.2% | 7.28% | 8.41% | 11.8% | 13.9% | 16.9% | 4.54% | 4.77% | 5.09% | viability, T/C [16]: 8.72%; viability, T/C [17]: 10.4%; viability, T/C [18]: 12.7%; viability, T/C [19]: 1.76%; viability, T/C [20]: 1.36%; viability, T/C [21]: 2.19%; viability, T/C [22]: 2.16%; viability, T/C [23]: 1.68%; viability, T/C [24]: 2.07%; viability, T/C [25]: 0.19%; viability, T/C [26]: 0.16%; viability, T/C [27]: 0.17%; viability, T/C [28]: 0.16%; viability, T/C [29]: 0.16%; viability, T/C [30]: 0.37%
COc1cc(C)[nH]c(=O)c1CN1CCc2c(Cl)cc(C(OC)C3COC3)c(Cl)c2C1=O (stereo not given) + COc1cc2c(cc1O)CCNC21CSC2c3c(OC(C)=O)c(C)c4c(c3C(COC1=O)N1C(O)C3Cc5cc(C)c(OC)c(O)c5C(C21)N3C)OCO4 | > 10000 nM | > 10000 nM | 3680 nM | < 31.6 nM | < 31.6 nM | 117% | 116% | 110% | 114% | 110% | 92.4% | 117% | 101% | 117% | 112% | 94.8% | 97.3% | 49.4% | 53.3% | 54.1% | viability, T/C [16]: 58.3%; viability, T/C [17]: 51.2%; viability, T/C [18]: 36.5%; viability, T/C [19]: 6.67%; viability, T/C [20]: 3.7%; viability, T/C [21]: 4.01%; viability, T/C [22]: 3.27%; viability, T/C [23]: 2.1%; viability, T/C [24]: 1.64%; viability, T/C [25]: 0.15%; viability, T/C [26]: 0.14%; viability, T/C [27]: 0.13%; viability, T/C [28]: 0.14%; viability, T/C [29]: 0.2%; viability, T/C [30]: 0.26%
COc1ccc([C@@H](O)c2cc(-c3ncnc4cc(N5CCOCC5)ccc34)c(F)cc2Cl)nn1 + COc1cc2c(cc1O)CCNC21CSC2c3c(OC(C)=O)c(C)c4c(c3C(COC1=O)N1C(O)C3Cc5cc(C)c(OC)c(O)c5C(C21)N3C)OCO4 | 1440 nM | 871 nM | < 31.6 nM | < 31.6 nM | < 31.6 nM | 100% | 107% | 95.6% | 58.6% | 31.1% | 19.5% | 105% | 99.2% | 78.7% | 45.4% | 27.4% | 19% | 40.7% | 43.3% | 26.3% | viability, T/C [16]: 13.7%; viability, T/C [17]: 9.98%; viability, T/C [18]: 7.7%; viability, T/C [19]: 2.51%; viability, T/C [20]: 2.48%; viability, T/C [21]: 0.8%; viability, T/C [22]: 0.09%; viability, T/C [23]: 0.1%; viability, T/C [24]: 0.26%; viability, T/C [25]: 0.14%; viability, T/C [26]: 0.23%; viability, T/C [27]: 0.49%; viability, T/C [28]: 1.37%; viability, T/C [29]: 1.46%; viability, T/C [30]: 1.42%
Cc1cc(C)c(CNC(=O)c2cc(-c3ccc(CN4CCOCC4)cc3)cc3c2cnn3C2CCCC2)c(=O)[nH]1 + COc1cc2c(cc1O)CCNC21CSC2c3c(OC(C)=O)c(C)c4c(c3C(COC1=O)N1C(O)C3Cc5cc(C)c(OC)c(O)c5C(C21)N3C)OCO4 | > 10000 nM | > 10000 nM | 629 nM | < 31.6 nM | < 31.6 nM | 99.1% | 113% | 110% | 109% | 101% | 84.2% | 97.7% | 107% | 108% | 102% | 101% | 78% | 50% | 55.4% | 47.4% | viability, T/C [16]: 49%; viability, T/C [17]: 48%; viability, T/C [18]: 40.5%; viability, T/C [19]: 5.06%; viability, T/C [20]: 5.13%; viability, T/C [21]: 5.06%; viability, T/C [22]: 3.5%; viability, T/C [23]: 3.21%; viability, T/C [24]: 4.34%; viability, T/C [25]: 0.15%; viability, T/C [26]: 0.18%; viability, T/C [27]: 0.17%; viability, T/C [28]: 0.15%; viability, T/C [29]: 0.17%; viability, T/C [30]: 0.23%
[2H]c1nc(C)nc([2H])c1-c1cc(NC[C@@H](C)c2cccc3c(C(=O)NC)ccnc23)ncn1 + COc1cc2c(cc1O)CCNC21CSC2c3c(OC(C)=O)c(C)c4c(c3C(COC1=O)N1C(O)C3Cc5cc(C)c(OC)c(O)c5C(C21)N3C)OCO4 | > 10000 nM | > 10000 nM | < 31.6 nM | < 31.6 nM | < 31.6 nM | 108% | 99.4% | 99.7% | 117% | 105% | 103% | 99.2% | 102% | 104% | 106% | 101% | 99.8% | 37.5% | 58.4% | 52.1% | viability, T/C [16]: 48.2%; viability, T/C [17]: 46%; viability, T/C [18]: 41%; viability, T/C [19]: 4.08%; viability, T/C [20]: 3.23%; viability, T/C [21]: 4.22%; viability, T/C [22]: 2.93%; viability, T/C [23]: 3.26%; viability, T/C [24]: 2.21%; viability, T/C [25]: 0.18%; viability, T/C [26]: 0.19%; viability, T/C [27]: 0.19%; viability, T/C [28]: 0.18%; viability, T/C [29]: 0.19%; viability, T/C [30]: 0.34%

— PubChem BioAssay AID1845196 (Molecular Pharmacology Branch, DTP, NCI, 2023)
